Experimental data as given in patent US9546393B2, “Mass spectrometry quantitation of P450 isoforms in hepatocytes” (DH Technologies Development Pte. Ltd., priority 2009, dated 2017).

Legend:
CYP 2B6 = CYP 2B6 induction in treated primary human hepatocytes (RNA assay, enzyme activity assay, LC-MSMS protein assay; FIG. 6); assay type: cell-based; settings: 72 hours, 3-MC 2 μM
Procedure: Flow rate was 700 μL/min.
The PB is a prototypical inducer for CYP 2B6, by CAR nuclear receptor activation.

CYP 3A4 = CYP 3A4 induction in treated primary human hepatocytes (RNA assay, enzyme activity assay, LC-MSMS protein assay; FIG. 8); settings: 72 hours, 3-MC 2 μM, PB 1 mM
CYP 1A2 [1] = test: RNA assay (mRNA by qRT-PCR, Taqman) for CYP 1A2 in treated human hepatocytes; assay type: cell-based; settings: primary human hepatocytes, 72 hours; 3-MC 2 μM; FIG. 7
CYP 1A2 [2] = settings: primary human hepatocytes, 72 hours; PB 1 mM, RIF 10 μM; FIG. 7

Row | Compound | changes in expression of CYP 2B6 (induction) (CYP 2B6) | changes in expression of CYP 3A4 (induction) (CYP 3A4) | CYP 1A2 RNA level in RNA assay (CYP 1A2 [1]) | changes in expression of CYP 1A2 (induction) (CYP 1A2 [2])
1 | Cc1ccc2cc3c(ccc4ccccc43)c3c2c1CC3 [3-MC, 3-methylcholanthrene] | induces basal levels | minimally induces | very high levels of RNA | 
2 | CCC1(c2ccccc2)C(=O)NC(=O)NC1=O [PB, phenobarbital] |  | significantly induces |  | basal levels of 1A2, if any
